Source: paper PMC11744769, “Modulation of the mechanism of action of antibacterial silver N-heterocyclic carbene complexes by variation of the halide ligand” (RSC Advances, 2025)

biological target: T1, thioredoxin reductase (TrxR) (Escherichia coli, UniProt P0A9P4); assay: DTNB reduction kinetic assay with Trx and NADPH in lysates of treated E. coli DSM […] cells; format: cell-based
T1 construct: gene trxB
T1 sequence (P0A9P4 2-321): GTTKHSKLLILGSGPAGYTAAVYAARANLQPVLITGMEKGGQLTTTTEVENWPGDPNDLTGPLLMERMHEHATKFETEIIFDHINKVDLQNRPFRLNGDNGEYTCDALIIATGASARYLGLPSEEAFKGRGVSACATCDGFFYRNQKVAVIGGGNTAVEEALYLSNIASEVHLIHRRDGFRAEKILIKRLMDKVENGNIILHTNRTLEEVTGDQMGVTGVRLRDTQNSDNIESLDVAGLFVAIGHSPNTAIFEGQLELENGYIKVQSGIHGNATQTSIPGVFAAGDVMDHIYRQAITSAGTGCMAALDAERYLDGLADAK

Going from `CC(C)n1[c]([Ag-][Cl])[n+](Cc2ccccn2)c2ccccc21` [1-Cl] to `CC(C)n1[c]([Ag-][I])[n+](Cc2ccccn2)c2ccccc21` [1-I], the IC50 falls from ~11 µM to ~6 µM (1.8-fold).

First: COCCn1[c]([Ag-][I])[n+](Cc2ccccn2)c2ccccc21 [2-I]
Second: COCCn1[c]([Ag-][Cl])[n+](Cc2ccccn2)c2ccccc21 [2-Cl]
The IC50 of the first is 1.8-fold lower: ~6 µM for the first, ~11 µM for the second. The first is the more potent here.
